According to ChEMBL document CHEMBL1141190, “Synthesis and structure-activity relationships of 1,2,4-triazoles as a novel class of potent tubulin polymerization inhibitors” (Bioorg Med Chem Lett, 2005):

Assays:
[1] = target: T1, Tubulin (Bos taurus) (UniProt Q6B856+Q862L2+Q862F3); conditions: at 10 µM
Description: Inhibition of tubulin polymerization in bovine brain at 10 uM

[2] = test system: A-431; assay: Cell cycle arrest in A431 cells by accumulation at G2/M phase cell at 0.1uM; assay type: functional; conditions: Homo sapiens
[3] = test system: A-431; assay: Cell cycle arrest in A431 cells by accumulation at G2/M phase cell; assay type: functional, cell-based; conditions: Homo sapiens
[4] = target: Tubulin; assay: Displacement of [3H]colchicine from tubulin; assay type: protein-complex assay, Homo sapiens
[5] = target: T1, Tubulin (Bos taurus); assay: Inhibition of tubulin polymerization in bovine brain at 3.33 uM
[6] = test system: A-431; assay: Antiproliferative activity against A431 tumor cells by sulforhodamine B assay; assay type: functional; conditions: Homo sapiens
[7] = test system: A498; assay: Antiproliferative activity against A498 tumor cells by sulforhodamine B assay; assay type: functional; conditions: Homo sapiens
[8] = test system: DLD-1; assay: Antiproliferative activity against DLD1 tumor cells by sulforhodamine B assay; assay type: functional; conditions: Homo sapiens
[9] = test system: DU-145; assay: Antiproliferative activity against DU145 tumor cells by sulforhodamine B assay; assay type: functional; conditions: Homo sapiens
[10] = test system: NCI-H460; assay: Antiproliferative activity against NCI-H460 tumor cells by sulforhodamine B assay; assay type: functional; conditions: Homo sapiens
[11] = test system: LoVo; assay: Antiproliferative activity against LoVo tumor cells by sulforhodamine B assay; assay type: functional; conditions: Homo sapiens
[12] = test system: HCT-116; assay: Antiproliferative activity against HCT116 tumor cells by sulforhodamine B assay; assay type: functional; conditions: Homo sapiens
[13] = test system: SNB-19; assay: Antiproliferative activity against SNB19 tumor cells by sulforhodamine B assay; assay type: functional; conditions: Homo sapiens
[14] = test system: SK-OV-3; assay: Antiproliferative activity against SKOV3 tumor cells by sulforhodamine B assay; assay type: functional; conditions: Homo sapiens
[15] = test system: NCI/ADR-RES; assay: Antiproliferative activity against NCI/ADR-RES tumor cells by sulforhodamine B assay; assay type: functional; conditions: Homo sapiens

Row | SMILES | inhibition [1] | inhibition at 0.1 µM [2] | EC50 [3] | inhibition [5] | further results
1 | COc1cccc(Nc2n[nH]c(-c3cccnc3Nc3cccc(OC)c3)n2)c1 | 9% |  |  |  | 
2 | COc1cc(Nc2ncccc2-c2n[nH]c(Nc3ccc4c(c3)OCO4)n2)cc(OC)c1 | 87% | 85% | 0.062 µM |  | Ki [4]: 0.06 µM
3 | COc1cccc(Nc2nnc(-c3cccnc3Nc3cc(OC)cc(OC)c3)[nH]2)c1 |  |  |  |  | Ki [4]: 0.1 µM
4 | Fc1ccc(CNc2ncccc2-c2n[nH]c(Nc3ccc4c(c3)OCO4)n2)cc1F | 84% | 23% |  |  | 
5 | COc1cc(O)cc(Oc2ncccc2-c2n[nH]c(Nc3ccc4c(c3)OCO4)n2)c1 |  | 83% | 0.012 µM | 80% | 
6 | COc1cccc(Nc2n[nH]c(-c3cccnc3Nc3ccccc3)n2)c1 | 4% |  |  |  | 
7 | COc1cc(Nc2ncccc2-c2nc(Nc3ccc4c(c3)OCCO4)n(C)n2)cc(OC)c1 | 76% | 26% | 0.13 µM |  | 
8 | COc1cc(OC)cc(Oc2ncccc2-c2nc(N(C)c3cccc(OC)c3)n[nH]2)c1 |  |  |  | 5% | 
9 | COc1ccc(Nc2n[nH]c(-c3cccnc3Nc3cc(OC)cc(OC)c3)n2)cc1 | 73% | 68% | 0.083 µM |  | 
10 | COc1cc(Nc2ncccc2-c2n[nH]c(Nc3cc(Cl)cc(Cl)c3)n2)cc(OC)c1 | 44% |  |  |  | 
11 | COc1cccc(Cc2n[nH]c(-c3cccnc3Nc3cc(OC)cc(OC)c3)n2)c1 | 9% |  |  |  | 
12 | COc1cc(OC)cc(Oc2ncccc2-c2n[nH]c(Nc3cc(F)cc(F)c3)n2)c1 | 87% | 27% |  | 51% | 
13 | COc1cc(Nc2ncccc2-c2nc(Nc3ccc(OC)cc3OC)n[nH]2)cc(OC)c1 | 47% | 17% |  |  | 
14 | COc1cc(Nc2ccncc2-c2n[nH]c(Nc3ccc4c(c3)OCCO4)n2)cc(OC)c1 | 100% | 77% | 0.0053 µM |  | 
15 | COc1cc(Nc2ncccc2-c2n[nH]c(Nc3ccc(C#N)cc3)n2)cc(OC)c1 | 34% |  |  |  | 
16 | COc1ccc(CNc2n[nH]c(-c3cccnc3Oc3cc(OC)cc(OC)c3)n2)cc1 | 86% | 28% |  |  | 
17 | COc1ccc(C(=O)Nc2n[nH]c(-c3cccnc3Oc3cc(OC)cc(OC)c3)n2)cc1 |  |  |  | 8% | 
18 | Cc1cc(C)cc(Oc2ncccc2-c2n[nH]c(Nc3ccc4c(c3)OCO4)n2)c1 |  | 83% | 0.01 µM | 52% | 
19 | CN(C)c1cccc(Oc2ncccc2-c2n[nH]c(Nc3ccc4c(c3)OCO4)n2)c1 |  | 63% | 0.011 µM | 53% | 
20 | COc1cc(Nc2n[nH]c(-c3cccnc3Nc3cc(OC)cc(OC)c3)n2)cc(OC)c1 | 45% |  |  |  | 
21 | COc1cc(OC)cc(Oc2ncccc2-c2n[nH]c(N(C)c3ccncc3)n2)c1 | 68% | 44% |  |  | 
22 | COc1cccc(Nc2n[nH]c(-c3cccnc3Nc3cc(F)cc(F)c3)n2)c1 | 0% |  |  |  | 

Row | SMILES | inhibition [1] | inhibition at 0.1 µM [2] | EC50 [3] | inhibition [5] | further results
23 | COc1cc(Nc2ncccc2-c2n[nH]c(Nc3ccc4c(c3)OCCO4)n2)cc(OC)c1 | 95% | 83% | 0.117 µM |  | 
24 | COc1cc(OC)cc(Oc2ncccc2-c2nnc(Nc3ccc4c(c3)OCCO4)n2C)c1 |  |  |  | 30% | 
25 | Fc1cc(F)cc(Nc2ncccc2-c2n[nH]c(Nc3ccc4c(c3)OCO4)n2)c1 | 28% |  |  |  | 
26 | COc1cc(Nc2n[nH]c(-c3cccnc3Oc3cc(OC)cc(OC)c3)n2)cc(OC)c1 | 99% | 87% | 0.023 µM | 73% | 
27 | COc1cccc(Nc2n[nH]c(-c3cccnc3Oc3cc(OC)cc(OC)c3)n2)c1 | 100% | 83% | 0.021 µM | 100% | Ki [4]: 0.05 µM
28 | COc1cc(OC)cc(Oc2cnccc2-c2n[nH]c(Nc3ccc4c(c3)OCCO4)n2)c1 |  | 40% | 0.21 µM | 59% | 
29 | c1cnc(NCc2ccncc2)c(-c2n[nH]c(Nc3ccc4c(c3)OCO4)n2)c1 | 84% | 70% | 0.066 µM |  | 
30 | c1ccc(Oc2ncccc2-c2nc(Nc3ccc4c(c3)OCO4)n[nH]2)nc1 |  | 21% |  | 43% | 
31 | COc1ccc(/C=C\c2cc(OC)c(OC)c(OC)c2)cc1O [COMBRETASTATIN A4] |  | 88% |  |  | 
32 | COc1cc(Nc2ccncc2-c2n[nH]c(Nc3ccc4c(c3)OCO4)n2)cc(OC)c1 | 100% | 84% | 0.0094 µM |  | 
33 | COc1cccc(CNc2n[nH]c(-c3cccnc3Nc3cc(OC)cc(OC)c3)n2)c1 | 100% | 71% | 0.12 µM |  | 
34 | COc1cc(Nc2nccnc2-c2n[nH]c(Nc3ccc4c(c3)OCO4)n2)cc(OC)c1 | 89% | 85% | 0.017 µM |  | 
35 | O=C1CCCN1CCCNc1ncccc1-c1n[nH]c(Nc2ccc3c(c2)OCCO3)n1 | 21% |  |  |  | 
36 | COc1ccc(CNc2n[nH]c(-c3cccnc3Nc3cc(OC)cc(OC)c3)n2)cc1 | 88% | 22% |  |  | 
37 | COc1cc(OC)cc(Oc2ncccc2-c2n[nH]c(Nc3ccc(N(C)C)cc3)n2)c1 | 98% | 86% | 0.031 µM | 76% | 
38 | COc1cc2c(c(OC)c1OC)-c1ccc(O)cc1[C@@H](N)CC2 [COLCHINOL] |  |  | 0.0435 µM |  | Ki [4]: 1.85 µM
39 | COc1cccc(CN(C)c2n[nH]c(-c3cccnc3Oc3cc(OC)cc(OC)c3)n2)c1 |  |  |  | 28% | 
40 | COc1cc(OC)cc(Oc2ncccc2-c2n[nH]c(Nc3cccnc3)n2)c1 |  | 61% | 0.066 µM | 49% | 
41 | COc1cc(OC)cc(Oc2ncccc2-c2n[nH]c(NCc3ccc4c(c3)OCO4)n2)c1 |  | 24% |  | 90% | 
42 | c1cncc(CCNc2ncccc2-c2n[nH]c(Nc3ccc4c(c3)OCCO4)n2)c1 | 23% |  |  |  | 
43 | COc1cc(Nc2ncccc2-c2nc(-c3cccc(OC)c3)n[nH]2)cc(OC)c1 | 15% |  |  |  | 
44 | COc1cc(Nc2ncccc2-c2n[nH]c(Nc3ccccc3)n2)cc(OC)c1 | 5% | 22% | > 10 µM |  | 

Row | SMILES | inhibition [1] | inhibition at 0.1 µM [2] | EC50 [3] | inhibition [5] | further results
45 | COc1cc(OC)cc(Oc2ncccc2-c2n[nH]c(Nc3ccc(C#N)cc3)n2)c1 | 97% | 27% |  | 57% | 
46 | COc1cccc(Nc2n[nH]c(-c3cccnc3Nc3cc(OC)cc(OC)c3)n2)c1 | 80% | 72% | 0.09 µM |  | GI50 [6]: 0.05 µM; GI50 [7]: 0.06 µM; GI50 [8]: 0.07 µM; GI50 [9]: 0.02 µM; GI50 [10]: 0.01 µM; GI50 [11]: 0.02 µM; GI50 [12]: 0.4 µM; GI50 [13]: 0.15 µM; GI50 [14]: 0.22 µM; GI50 [15]: 0.15 µM
47 | Fc1cc(F)cc(Oc2ncccc2-c2n[nH]c(Nc3ccc4c(c3)OCO4)n2)c1 |  | 23% |  | 97% | 
48 | Fc1cccc(Oc2ncccc2-c2n[nH]c(Nc3ccc4c(c3)OCO4)n2)c1 |  | 37% |  | 43% | 
49 | COc1cc(Nc2ncccc2-c2n[nH]c(Nc3ccc(N(C)C)cc3)n2)cc(OC)c1 | 35% |  |  |  | 
50 | COc1cc(OC)cc(Oc2ncncc2-c2n[nH]c(Nc3ccc4c(c3)OCCO4)n2)c1 |  | 83% | 0.044 µM | 69% | 
51 | Fc1ccc(CNc2ncccc2-c2n[nH]c(Nc3ccc4c(c3)OCCO4)n2)cc1F | 84% | 32% |  |  | 
52 | COc1cc(Oc2ncccc2-c2n[nH]c(Nc3ccc4c(c3)OCO4)n2)cc(OC)c1OC |  | 86% | 0.016 µM | 89% | 
53 | COc1cc(Nc2ncncc2-c2n[nH]c(Nc3ccc4c(c3)OCCO4)n2)cc(OC)c1 | 100% | 68% | 0.053 µM |  | 
54 | COc1ccc(CNc2ncccc2-c2n[nH]c(Nc3ccc4c(c3)OCCO4)n2)cc1 | 68% | 30% |  |  | 
55 | COc1cc(OC)cc(Oc2ncccc2-c2n[nH]c(Nc3ccc4c(c3)OCCO4)n2)c1 | 100% | 89% | 0.0036 µM | 88% | Ki [4]: 0.02 µM
56 | COc1cc(Nc2ncccc2-c2nnc(Nc3ccc4c(c3)OCCO4)[nH]2)cc(OC)c1 |  |  |  |  | Ki [4]: 0.16 µM
57 | COc1cc2c(c(OC)c1OC)-c1ccc(OC)c(=O)cc1[C@@H](NC(C)=O)CC2 [COLCHICINE] |  | 80% | 0.0028 µM |  | 
58 | COc1cc(OC)cc(Oc2ccccc2-c2n[nH]c(Nc3ccc4c(c3)OCCO4)n2)c1 |  | 82% | 0.0066 µM | 65% | 
59 | COc1cccc(CNc2n[nH]c(-c3cccnc3Oc3cc(OC)cc(OC)c3)n2)c1 | 100% | 32% |  |  | 
60 | COc1cc(OC)cc(Oc2ncccc2-c2n[nH]c(Nc3cccc(O)c3)n2)c1 | 100% | 86% | 0.01 µM | 83% | 
61 | COc1cc(OC)cc(Oc2ncccc2-c2n[nH]c(Nc3ccc4c(c3)OCO4)n2)c1 | 98% | 83% | 0.0072 µM | 91% | Ki [4]: 0.01 µM
62 | COc1cc(Nc2ncccc2-c2nnc(Nc3ccc4c(c3)OCCO4)n2C)cc(OC)c1 |  | 25% | 0.24 µM | 64% | 
63 | COc1cc(Nc2ncccc2-c2nc(Nc3cc(OC)ccc3OC)n[nH]2)cc(OC)c1 | 33% | 20% | > 10 µM |  | 
64 | COc1cc(OC)cc(Oc2ccncc2-c2n[nH]c(Nc3ccc4c(c3)OCCO4)n2)c1 |  | 86% | 0.013 µM | 96% | 
